Data from publication PMC11801377, “A uniquely efficacious type of CFTR corrector with complementary mode of action” (Science Advances, 2024).

What was measured:
[1] = tested on: 10 most frequent CF-causing CFTR folding mutations; assay: CFTR correction (immunoblotting) in HEK-TREx cells expressing CF-causing CFTR folding mutations; format: cell-based, human; conditions: many mutants
Source text: (§1) The human CFTR expressing HEK cell pools with the mutations described below were generated by integrase-mediated homologous recombination of the CFTR sequence into the T-REx HEK293 background (Thermo Fisher Scientific). This expression system allows the tetracycline-inducible expression of genes of interest from one defined insertion site. Parental T-REx-HEK293 cells were cultivated in growth medium: Dulbecco’s modified Eagle’s medium + GlutaMAX-I (#31966, Life Technologies), 10% dialyzed FBS (Gibco, #26400), penicillin (100 U/ml), streptomycin (100 μg/ml), hygromycin B (0.1 mg/ml; Life Technologies), blasticidin (5 μg/ml; Invitrogen, #R210-01), and 0.1 mM nonessential amino acid solution (Invitrogen, #11140-035). Recombinant T-REx-HEK-CFTR cells were generated by lipofectamine transfection (Life Technologies) of plasmids containing mutated versions of CFTR (RefSeq NM_000492) and then cultivated in selection medium [growth medium containing Geneticin (1 mg/ml) (Invitrogen, #10131-027) instead of hygromycin]. The plasmid constructs were synthetized by GENEART (Thermo Fisher Scientific) and designed with the WT CFTR intron 5 to 6 (880 nucleotides) to prevent leaky expression issues during the cloning process in bacteria. […]

F508del-CFTR = F508del-CFTR (Homo sapiens, UniProt P13569, DEL508-508); assay: CFTR immunoblotting in HEK-TREx cells expressing F508del-CFTR; format: cell-based; parameters: expressed in transfected cells; host or cells: T-REx HEK293; conditions: 48 hours, IDOR-3 2 μM, IDOR-4 0.4 μM
Sequence of F508del-CFTR (P13569 with tags, fused parts or gaps DEL508-508): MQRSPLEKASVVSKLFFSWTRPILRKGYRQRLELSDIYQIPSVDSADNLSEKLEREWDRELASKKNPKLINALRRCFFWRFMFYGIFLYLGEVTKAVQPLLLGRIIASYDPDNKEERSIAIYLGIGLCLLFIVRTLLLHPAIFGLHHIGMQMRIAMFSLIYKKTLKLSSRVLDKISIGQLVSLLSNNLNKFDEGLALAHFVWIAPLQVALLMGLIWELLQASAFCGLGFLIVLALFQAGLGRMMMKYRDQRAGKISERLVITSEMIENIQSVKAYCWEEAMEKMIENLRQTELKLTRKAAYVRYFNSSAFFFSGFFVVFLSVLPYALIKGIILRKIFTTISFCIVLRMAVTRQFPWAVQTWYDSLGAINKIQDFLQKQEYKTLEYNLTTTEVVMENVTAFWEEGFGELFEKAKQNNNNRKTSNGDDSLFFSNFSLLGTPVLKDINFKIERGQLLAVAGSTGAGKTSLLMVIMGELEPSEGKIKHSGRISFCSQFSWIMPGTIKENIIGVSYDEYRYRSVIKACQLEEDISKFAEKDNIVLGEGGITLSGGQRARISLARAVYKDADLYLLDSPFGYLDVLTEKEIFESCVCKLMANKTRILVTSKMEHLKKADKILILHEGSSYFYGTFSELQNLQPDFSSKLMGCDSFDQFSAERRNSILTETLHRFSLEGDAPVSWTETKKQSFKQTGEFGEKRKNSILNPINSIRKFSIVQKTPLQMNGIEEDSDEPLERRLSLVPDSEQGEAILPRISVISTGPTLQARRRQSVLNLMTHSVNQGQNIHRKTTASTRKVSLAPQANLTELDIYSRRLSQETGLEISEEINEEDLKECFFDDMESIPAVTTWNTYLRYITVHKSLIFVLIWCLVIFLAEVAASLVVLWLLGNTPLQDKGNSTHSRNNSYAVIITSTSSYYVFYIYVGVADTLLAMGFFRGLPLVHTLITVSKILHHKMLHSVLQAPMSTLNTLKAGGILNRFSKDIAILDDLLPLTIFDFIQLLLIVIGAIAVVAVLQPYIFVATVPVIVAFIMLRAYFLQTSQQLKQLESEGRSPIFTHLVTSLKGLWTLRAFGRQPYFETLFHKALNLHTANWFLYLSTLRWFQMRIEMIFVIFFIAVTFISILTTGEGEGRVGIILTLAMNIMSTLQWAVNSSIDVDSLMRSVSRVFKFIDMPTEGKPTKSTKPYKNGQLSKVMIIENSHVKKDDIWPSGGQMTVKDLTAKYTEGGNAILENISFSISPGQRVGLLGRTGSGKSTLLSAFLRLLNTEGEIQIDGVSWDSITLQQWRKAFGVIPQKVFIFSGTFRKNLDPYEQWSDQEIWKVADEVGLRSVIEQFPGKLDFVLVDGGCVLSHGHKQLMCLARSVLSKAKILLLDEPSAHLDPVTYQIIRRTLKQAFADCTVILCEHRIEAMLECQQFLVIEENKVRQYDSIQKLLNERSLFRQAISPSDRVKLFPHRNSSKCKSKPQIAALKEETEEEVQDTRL
Source text: as §1

Row | SMILES | correction by stand-alone treatment [1] | increase in C-band expression (F508del-CFTR)
1 | Cc1nn(C)cc1S(=O)(=O)NC(=O)c1ccc(-n2ccc(OCC(C)(C)C(F)(F)F)n2)nc1N1C[C@@H](C)CC1(C)C [ELX, elexacaftor] | no/little correction | –
2 | COc1cc(CCNC(=O)C2CC(=O)N(C)C(CC(C)C)C(=O)N3CCCCC3C(=O)NC(Cc3ccccc3)COc3ccc4ncc(F)cc4c3C(=O)N2)on1 (stereo not drawn) [IDOR-3] | – | 9 fold
3 | CC(C)(CO)c1cc2cc(NC(=O)C3(c4ccc5c(c4)OC(F)(F)O5)CC3)c(F)cc2n1C[C@@H](O)CO [TEZ, tezacaftor] | no/little correction | –
